In patent US7714014B2, “Targeting GLI proteins in human cancer by small molecules” (The Regents of the University of California, priority 2005, dated 2010):

Tests used:
[1] = test system: NSCLC cell lines A549, H358, and H322; assay: Dose titration, cell killing; assay type: cell-based, human; conditions: 7.5-30 μM tested, 3 days
Experimental: (§1) Typically, the small molecule compounds of the present invention were dissolved in DMSO at a concentration of 30 mM. The small molecule compounds were then tested under cell culture conditions at different concentrations ranging from 0, 10, 30, 50, to 100 uM. To determine cell survival after treatment, the cells were incubated with the small molecule compounds in 6-well plates for about 3 days. After removal of the cell culture medium, 1-ml of 0.5% crystal violet solution (prepared in 20% ethanol and 20% methanol) was added to stain the cells for 5 min. Then the crystal violet solution was rinsed clean with tap water. Cell survival was estimated based on the density of crystal stained plates.
(§2) Dose titration experiments of small molecule compound FN1-8 was performed using the NSCLC cell lines A549, H358, and H322. A 549, H358, and H322 cells were plated in 6-well plates and incubated with DM SO (control) or 7.5 μM, 10 μM, 15 μM, 20 μM, and 30 μM of FN1-8, respectively, for 3 days. A dramatic and dose-dependent cell killing in these cell lines was observed when FN1-8 was added at 15 μM or more. FN1-8 induced cell killing in A549 and […] at slightly lower concentrations than in H322 cells (data not shown). After 3 days, approximately 28% of the A549 cells and 58% of H358 underwent apoptosis when incubated with 20 μM FN1-8 (Table 3).

H358 (NSCLC) = assay: Apoptosis analysis (Annexin V FITC, flow cytometry); assay type: cell-based, human; conditions: 3 days
Experimental: Apoptosis was analyzed by using an Annexin V FITC Apoptosis Detection Kit (Biosource, Camarillo, Calif.), according to the manufacturer's protocol. After treatment with different small molecule compounds at various concentrations for about 3 days, cells were harvested by trypsinization, stained and immediately analyzed by flow cytometry (FACScan; Decton Dickinson, Franklin Lake, N.J.). Early apoptotic cells with exposed phosphatidylserine but intact cell membranes will bind to Annexin V-FITC, but not propidium iodide (PI). Cells in necrotic or late apoptotic stages will be labeled with both Annexin V-FITC and PI. “% apoptotic cells” or “% apoptosis” refers to the combined early and late apoptotic cells.
as §2

[2] = test system: melanoma cell lines A375, G361, SK-Mel-2, SK-Mel-5, and SK-Mel-28; assay: Dose titration, cell killing; assay type: cell-based, human; conditions: A375, 2-40 μM tested, 3 days; similar effect in G361, SK-Mel-2, SK-Mel-5, SK-Mel-28
Experimental: as §1
Dose titration experiments of small molecule compound FN1-8 was performed using the melanoma cell lines A375, G361, SK-Mel-2, SK-Mel-5, and SK-Mel-28. A 375 cells were plated in 6-well plates and incubated with DM SO (control) or 2 μM, 5 μM, 10 μM, 20 μM, and 40 μM of FN1-8, respectively, for 3 days. A dramatic and dose-dependent cell killing in this cell line was observed when FN1-8 was added at 10 μM or more (data not shown). […]

[3] = test system: human normal skin fibroblast cells (Malme-3); assay: Time course of cell survival (flow cytometry); assay type: cell-based; conditions: 10 μM or 20 μM, after 6 days
Experimental: To investigate whether small molecule compounds of the present invention, e.g., FN1-8, specifically kill cancer cells, time course experiments of cell survival after administration of 10 μM and 20 μM of FN1-8 were also conducted using human normal skin fibroblast cells (Malme-3).

[4] = target: T1, GLI2-TAFbd peptide / TAFII31 protein (Homo sapiens, UniProt Q16594); assay: Co-immunoprecipitation of GLI-TAFbd peptide and TAFII31; assay type: binding
T1 construct: The full-length TAFII31 cDNA insert cloned into the (c-myc-tag)pCDNA3.1 expression vector was used as template; made in house; host or cells: cell-free: TNT quick coupled transcription/translation system (Promega)
Experimental: (§3) The binding between GLI-TAF binding domain peptides (GLI-TAFbd) and TAFII31 protein was quantified by measuring the intensity of each band of an co-immunoprecipitation experiments with arbitrary unit. The binding after DMSO treatment was set to 100% for each GLI-TAFbd peptide. The binding was interfered by FN1-8 in dose-dependent manner: the binding for GLI1-TAFbd was 73.6% and 33.5%, for GLI2-TAFbd was 73.8% and 60%, for GLI3-TAFbd was 71.6% and 28.6%, after treatment with 20 μM and 50 μM FN1-8, respectively. Details are described in Example 35.
(§4) Specifically for this experiment, biotinylated TAF binding domain of GLI proteins, GLI1, GLI2, and GLI3 (see below) were custom synthesized at Genemed Synthesis, Inc. The GLI-TAF binding domain (GLI-TAFbd) peptide sequences were as follows;
(§5) TAFII31 proteins were prepared by using the TNT quick coupled transcription/translation systems (Promega) according to the manufacturer's protocol. The full-length TAFII31 cDNA insert cloned into the (c-myc-tag)pCDNA3.1 expression vector was used as template in this in vitro translation system. An empty (c-myc-tag)pCDNA3.1 expression vector was used as a control. The biotinylated GLI peptides (i.e., the TAF binding domains of three different GLI proteins) were incubated with the TAFII31 protein in the presence or absence of small molecule compound FN1-8 (at 20 μM and 50 μM). Then the biotinylated GLI-peptide-TAFII31 complexes were precipitated with streptavidine agarose followed by immunoblotting with an anti-c-myc antibody (A-14; Santa Cruz Biotech, Inc.; Cao et al., 2001, Science 293:115-120). […] As a control, there was no pull-down of TAFII31 by all three GLI peptides when the empty (c-myc-tag)pCDNA3.1 expression vector was used in in vitro translation system (FIG. 23).

[5] = target: T2, GLI3-TAFbd peptide / TAFII31 protein (Homo sapiens, UniProt Q16594); assay: as above; assay type: binding
T2 construct: The full-length TAFII31 cDNA insert cloned into the (c-myc-tag)pCDNA3.1 expression vector was used as template; made in house; host or cells: cell-free: TNT quick coupled transcription/translation system (Promega)
Experimental: as §3, §4, §5

[6] = target: T3, GLI1-TAFbd peptide / TAFII31 protein (Homo sapiens, UniProt Q16594); assay: as above; assay type: binding
T3 construct: The full-length TAFII31 cDNA insert cloned into the (c-myc-tag)pCDNA3.1 expression vector was used as template; made in house; host or cells: cell-free: TNT quick coupled transcription/translation system (Promega)
Experimental: as §3, §4, §5

T1 sequence (Q16594 whole entry): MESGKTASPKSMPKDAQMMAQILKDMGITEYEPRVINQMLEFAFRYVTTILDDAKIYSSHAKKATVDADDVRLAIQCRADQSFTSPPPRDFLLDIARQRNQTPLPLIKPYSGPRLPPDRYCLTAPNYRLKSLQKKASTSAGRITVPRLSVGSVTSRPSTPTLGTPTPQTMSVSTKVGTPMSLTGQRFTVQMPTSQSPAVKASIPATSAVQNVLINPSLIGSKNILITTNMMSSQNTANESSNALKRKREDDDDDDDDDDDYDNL
T2 sequence (Q16594 whole entry): as above
T3 sequence (Q16594 whole entry): as above

- binding of GLI2-TAFbd to TAFII31 (DMSO = 100%) ([4]; 20 μM): 73.8%
- binding of GLI2-TAFbd to TAFII31 (DMSO = 100%) ([4]; 50 μM): 60%
- binding of GLI3-TAFbd to TAFII31 (DMSO = 100%) ([5]; 20 μM): 71.6%
- binding of GLI3-TAFbd to TAFII31 (DMSO = 100%) ([5]; 50 μM): 28.6%
- binding of GLI1-TAFbd to TAFII31 (DMSO = 100%) ([6]; 20 μM): 73.6%
- binding of GLI1-TAFbd to TAFII31 (DMSO = 100%) ([6]; 50 μM): 33.5%
SMILES: O=C(NCCc1ccc(O)cc1)C1C(c2ccccc2)=NN(c2ccccc2)C1c1ccccc1 (centres unmarked) [FN1-8, N-(2-(4-Hydroxyphenyl)ethyl)-1,3,5-triphenyl-4,5-dihydro-pyrazole-4-carboxyamide]
- concentration at which dramatic and dose-dependent cell killing was observed [1]: ≥ 15 µM
- % of apoptotic cells (H358 (NSCLC); H358, 10 μM): 15.2%
- % of apoptotic cells (H358 (NSCLC); H358, 20 μM): 58.1%
- concentration at which dramatic and dose-dependent cell killing was observed [2]: ≥ 10 µM
- cell killing in normal cells [3]: no cell killing
